Laboratory results as given in US10383848B2, “Indole-based therapeutics” (Creighton University, priority 2016, dated 2019).
Converted amounts (≈) assume the structure as drawn. Like-named read-outs stand apart in the source and are kept apart here.

What was measured:
[1] = test system: M. abscessus ATCC 19977; assay: MIC, resazurin microtiter assay; format: cell-based; conditions: Mycobacteroides abscessus
[2] = test system: M. abscessus DCI #21; assay: MIC, resazurin microtiter assay; format: cell-based; conditions: for MIC: Mycobacteroides abscessus, read-out: MIC M. abscessus DCI #21
[3] = test system: M. massiliense CIP 108297; assay: MIC, resazurin microtiter assay; format: cell-based; conditions: Mycobacteroides abscessus
[4] = test system: M. massiliense CRM 0019; assay: MIC, resazurin microtiter assay; format: cell-based; conditions: for MIC: Mycobacteroides abscessus
[5] = test system: M. bolletii ATCC 14472; assay: MIC, resazurin microtiter assay; format: cell-based; conditions: for MIC: Mycobacteroides abscessus
[6] = test system: M. chelonae ATCC 35752; assay: MIC, resazurin microtiter assay; format: cell-based; conditions: Mycobacteroides chelonae
[7] = test system: M. tuberculosis H37Rv mc^26206; assay: microbe, parasite or virus in culture; format: cell-based; conditions: for Selectivity Index (TD50/MIC) M. tb H37Rv: TD50 in THP-1 cells
[8] = test system: M. smegmatis mc^2155; assay: MIC, resazurin microtiter assay; format: cell-based; conditions: Mycolicibacterium smegmatis
[9] = test system: M. avium 104; assay: MIC, resazurin microtiter assay; format: cell-based; conditions: Mycobacterium avium, 104, read-out: MIC M. avium 104
[10] = test system: M. intracellulare 1956; assay: MIC, resazurin microtiter assay; format: cell-based; conditions: read-out: MIC M. avium Intracellulare 1956
[11] = test system: M. xenopi WT; assay: MIC, resazurin microtiter assay; format: cell-based; conditions: Mycobacterium xenopi, read-out: MIC M. xenopi WT
[12] = test system: P. aeruginosa PAO-1; assay: MIC, resazurin microtiter assay; format: cell-based, Pseudomonas aeruginosa; conditions: for MIC: Pseudomonas aeruginosa
[13] = test system: S. aureus ATCC25923; assay: MIC, resazurin microtiter assay; format: cell-based; conditions: Staphylococcus aureus
[14] = test system: THP-1 cells; assay: Cytotoxicity assay, THP-1 cell viability (CellTiter-Glo); format: cell-based, human; conditions: 3 days
Description: The cytotoxicity of compounds was determined by measuring THP-1 cell viability after 3 days in the presence of test compounds. Compounds were prepared as 10-point serial dilutions in DMSO. The highest concentration of compound tested was 50 μM where compounds were soluble in DMSO at 10 mM. THP-1 cells were cultured in complete RPMI and differentiated into macrophage-like cells using 80 nM PMA overnight at 37° C., 5% CO2. Cells were inoculated into assay plates and cultured for 24 h before compound dilutions were added to a final DMSO concentration of 0.5%. Each run included staurosporine as a control. Assay plates were incubated for 3 days at 37° C., 5% CO2, growth was measured using the CellTiter-Glo® Luminescent Cell Viability Assay (Promega) which uses ATP as an indicator of cell viability. Relative luminescent units (RLU) were measured using a Biotek Synergy 4 plate reader. The dose response curve was fitted using the Levenberg-Marquardt algorithm.

[15] = test system: M. abscessus 103; assay: MIC/MBC by microbroth dilution (MH or 7H9 broth); format: cell-based, M. abscessus subsp. bolletii
[16] = test system: M. abscessus 1513; assay: MIC/MBC by microbroth dilution (MH or 7H9 broth); format: cell-based, M. abscessus subsp. abscessus
[17] = In vivo acute toxicity assay (Maximum Tolerated Dose); parameters: species or system Balb/C mice; conditions: 100, 200 and 300 mg/kg for 3 consecutive days of dosing, gavage, mice
Description: 6-8 week old Balb/C female mice were ordered from Charles River. Mice were rested one to two weeks before dosing. For each dose of compound, 3 mice were utilized. […] Compound was given twice per day for 3 consecutive days by gavage, at 100 μl/mouse. Compounds were prepared the day before or the day of dosing and stored at 4° C. until dosing. The time of dosing was recorded for each mouse. Observations were recorded immediately, at 10 min, 1 hour, 2 hours, 4 hours, and 24 hours after dosing. […] Mice were dosed for three days and on the fourth day mice were observed twice daily for two days, then once daily for five days.
As an initial in vivo study, the safety of compounds and preliminary pharmacokinetics was assessed in an acute toxicity mouse model (Maximum Tolerated Dose assay, MTD) to evaluate any potential adverse effects and determine a safe dose for mouse efficacy studies. Compounds were tested to ensure safe use in healthy mice prior to any further in vivo testing. […] Novel compounds were generally administered to mice at 40, 75 and 100 mg/kg in a tested formulation, administered on three consecutive days, 3 mice per dose group, in the chosen formulation. […] Mice were observed 10 min, 1, 2, 4 hours after dosing and then daily afterwards. During the observations, humane handling practices and animal welfare regulations were strictly followed. […]

[18] = test system: M. abscessus 103; assay: Acute SCID mouse infection efficacy model; conditions: for log10 CFU liver counts on day 12 / log10 CFU spleen counts on day 12: SCID mice i.v. infected with M. abscessus 103, compounds 300 mg/kg PO in 20% cyclodextrin, AMI 150 mg/kg SQ, once daily 8 days
[19] = test system: M. massiliense strain 1513; assay: Metabolic labeling and mycolic acid analysis; conditions: 4x and 10x MIC, 16 hr, [1,2-14C]acetate labeling, TLC
Description: Cultures of M. massiliense 1513 grown to mid log-phase in Mueller-Hinton II broth were incubated with different concentrations of inhibitors for 16 hr at 37° C. with shaking. 0.5 μCi/mL [1,2-^14C]acetic acid (specific activity, 52 Ci/mol, PerkinElmer Inc.) was added at the same time as the inhibitors. Total lipids and cell wall-bound mycolic acid methyl esters were prepared from treated and untreated cells and analyzed by TLC as described in Grzegorzewicz et al, Nature Chemical Biology, 2012, 8:334+341.

[20] = test system: mycobacteria; assay: organism not typed; format: cell-based; conditions: lowest concentration reducing CFU by 90% relative to the inoculum; strain not stated; read-out: MBC90
[21] = Dose response pharmacokinetics, plasma concentration by LC-MS/MS; format: in vivo, BALB/c mice; conditions: single oral dose 100 and 200 mg kg^-1, 2 and 4 h, mice
Description: P.O. dosing at 100, 200 and 300 mg kg^−1 was administered; after administration, blood was collected at 2 and 4 hour time points for quantification. Plasma concentration of the compounds 5 and 25 was determined using liquid chromatography tandem mass spectrometry. Data are presented as mean±SD.
Female BALB/c mice were given a dose of compounds 5 or 25 at 100, 200 and 300 mg kg′ by oral gavage in a volume of 0.2 mL. At 2 and 4 hours after compound administration, animals were euthanized and cardiac blood (approximately 0.7 mL) was collected. Plasma was separated using centrifugation at 12,000 g for 20 min at 4° C. and stored at […]. Concentrations of compounds 5 and 25 in plasma were analyzed with LC-tandem MS (LC-MS/MS, AB SCIEX QTRAP 5500 system) with warfarin as internal standard. MS detection of mass transitions 295.2/135.2 (Compound 5), 299.2/146.1 (Compound 25) and 309.1/163.0 (Warfarin) was carried out. Concentration calculation was performed with MultiQuant Software (Version 2.1, AB SCIEX). The pharmacokinetic profile of the test compound was analyzed from plasma concentration-time data after oral administration.

[22] = test system: panel of mycobacteria; assay: MIC against a panel of mycobacteria (summary ranges); format: cell-based; conditions: M. avium and M. xenopi strains of Table 3
[23] = test system: M. abscessus 103; conditions: mouse, in vivo, 300 mg/kg
[24] = infected SCID mice, daily 300 mg/kg in 20% cyclodextrin

O=C(NC12CC3CC(CC(C3)C1)C2)c1cc2ccccc2[nH]1 [Compound 5, N-(1-adamantyl)-1H-indole-2-carboxamide]
MIC ([1]; ATCC19977, read-out: MIC M. abscessus ATCC 19977): 0.25 µg/mL (≈ 0.849 µM) | MIC [2]: 0.25 µg/mL (≈ 0.849 µM) | Selectivity Index (TD50/MIC) M. abscessus DCI #21 ([2]; TD50 in THP-1 cells): >58 | MIC ([3]; CIP108297, read-out: MIC M. massiliense CIP 108297): 0.5 µg/mL (≈ 1.7 µM) | MIC ([4]; CRM0019, read-out: MIC M. massiliense CRM 0019): 0.25 µg/mL (≈ 0.849 µM) | Selectivity Index (TD50/MIC) M. Massiliense CRM0019 ([4]; TD50 in THP-1 cells): >58 | MIC ([5]; ATCC14472, read-out: MIC M. bolletii ATCC 14472): 0.25 µg/mL (≈ 0.849 µM) | Selectivity Index (TD50/MIC) M. bolletii ([5]; TD50 in THP-1 cells): >58 | MIC ([6]; ATCC35752, read-out: MIC M. chelonae ATCC 35752): 0.25 µg/mL (≈ 0.849 µM) | MIC ([7]; Mycobacterium tuberculosis, H37RV, read-out: MIC M. tb H37 Rv (mc2-6206)): 0.2 µg/mL (≈ 0.679 µM) | Selectivity Index (TD50/MIC) M. tb H37Rv [7]: >73 | MIC ([8]; MC^2155, read-out: MIC M. smeg. mc^2155): 1.56 µg/mL (≈ 5.3 µM) | MIC [9]: 8 µg/mL (≈ 27.2 µM) | MIC [10]: 8 µg/mL (≈ 27.2 µM) | MIC [11]: 0.5 to 1 µg/mL (≈ 1.7 to 3.4 µM) | MIC P. aeruginosa PAO-1 ([12]; Mueller Hinton II): inactive | MIC ([12]; PAO1, read-out: MIC P. aeruginosa PAO-1): > 160 µg/mL | MIC ([13]; ATCC25923, read-out: MIC S. aureus ATCC25923): > 160 µg/mL | TD50 [14]: >14.7 µg/mL | MIC ([15]; Mycobacteroides abscessus, 103, read-out: MIC M. abscessus 103, 7H9 Broth): > 64 µg/mL | MIC ([15]; Mycobacteroides abscessus, 103, read-out: MIC M. abscessus 103, MH Broth): 16 µg/mL (≈ 54.3 µM) | MIC ([16]; Mycobacteroides abscessus, 1513, read-out: MIC M. abscessus 1513, 7H9 Broth): > 64 µg/mL | MIC ([16]; Mycobacteroides abscessus, 1513, read-out: MIC M. abscessus 1513, MH Broth): 32 µg/mL (≈ 109 µM) | Tolerability (acute toxicity, MTD) [17]: well tolerated | log10 CFU liver counts on day 12 [18]: 5.30±0.23 log10 CFU | log10 CFU spleen counts on day 12 [18]: 3.79±0.40 log10 CFU | Survival until the Day 12 endpoint [18, 24]: all animals survived | Weight loss [18, 24]: didn't demonstrate any significant weight loss | TMM build-up and mycolic acid transfer onto arabinogalactan and TDM [19]: concentration-dependent build-up of TMM

Cc1cc(C)c2cc(C(=O)NC3CCCCCCC3)[nH]c2c1 [Compound 25, N-cyclooctyl-4,6-dimethyl-1H-indole-2-carboxamide]
MIC ([1]; ATCC19977, Mueller Hinton II, read-out: MIC M. abscessus ATCC 19977): 0.063 µg/mL (≈ 0.211 µM) | MIC ([2]; Mueller Hinton II): 0.0078 µg/mL (≈ 0.0261 µM) | MIC ([3]; CIP108297, Mueller Hinton II, read-out: MIC M. massiliense CIP 108297): 0.031 µg/mL (≈ 0.104 µM) | MIC ([4]; CRM0019, Mueller Hinton II, read-out: MIC M. massiliense CRM 0019): 0.0078 µg/mL (≈ 0.0261 µM) | MIC ([5]; ATCC14472, Mueller Hinton II, read-out: MIC M. bolletii ATCC 14472): 0.0039 µg/mL (≈ 0.0131 µM) | MIC ([6]; ATCC35752, Mueller Hinton II, read-out: MIC M. chelonae ATCC 35752): 0.063 µg/mL (≈ 0.211 µM) | Selectivity Index (TD50/MIC) M. tb H37Rv [7]: >764 | MIC ([8]; MC^2155, 7H9-ADC-0.05% Tween 80, read-out: MIC M. smeg. mc^2155): 0.313 to 0.625 µg/mL (≈ 1.05 to 2.09 µM) | MIC ([10]; Mueller Hinton II): 1 µg/mL (≈ 3.35 µM) | MIC ([11]; Mueller Hinton II): 0.25 µg/mL (≈ 0.838 µM) | MIC P. aeruginosa PAO-1 ([12]; Mueller Hinton II): inactive | MIC ([12]; PAO1, Mueller Hinton II, read-out: MIC P. aeruginosa PAO-1): > 160 µg/mL | MIC ([13]; ATCC25923, Mueller Hinton II, read-out: MIC S. aureus ATCC25923): > 160 µg/mL | MBC [20]: 0.015 µg/mL (≈ 0.0503 µM) | TD50 [14]: >14.9 µg/mL | MBC ([15]; Mycobacteroides abscessus, 103; MH broth; read-out: MBC99 M. abscessus subsp. bolletii 103): 64 µg/mL (≈ 214 µM) | MIC ([15]; Mycobacteroides abscessus, 103; read-out: MIC M. abscessus 103, 7H9 Broth): > 64 µg/mL | MIC ([15]; Mycobacteroides abscessus, 103; read-out: MIC M. abscessus 103, MH Broth): 16 µg/mL (≈ 53.6 µM) | MBC ([16]; Mycobacteroides abscessus, 1513; MH broth; read-out: MBC99 M. abscessus subsp. abscessus 1513): 64 µg/mL (≈ 214 µM) | MIC ([16]; Mycobacteroides abscessus, 1513; read-out: MIC M. abscessus 1513, 7H9 Broth): > 64 µg/mL | MIC ([16]; Mycobacteroides abscessus, 1513; read-out: MIC M. abscessus 1513, MH Broth): 16 µg/mL (≈ 53.6 µM) | Tolerability (acute toxicity, MTD) [17]: well tolerated | Blood concentration compared to compound 5 [21]: lower blood concentration | MIC range in MAC panel [22]: 0.25 to 1 µg/mL | Survival until the Day 12 endpoint [23]: all animals survived | Weight loss [23]: didn't demonstrate any significant weight loss | log10 CFU liver counts on day 12 [18]: 4.90±0.49 log10 CFU | log10 CFU spleen counts on day 12 [18]: 2.91±0.45 log10 CFU | TMM build-up and mycolic acid transfer onto arabinogalactan and TDM [19]: concentration-dependent build-up of TMM
